Data on eight molecules can be found in paper PMC5645021 (Organic letters, 2014).

Bounds are passed on as bounds.

As a reminder, the IC50 is the concentration at which inhibition is half-maximal.

Holding throughout (type): cell-based
One data set relates to SW620 Ad300. In words: MTT cytotoxicity, SW620 Ad300. Conditions: for FR (fold resistance), control study: SW620 Ad300 versus SW620; for IC50: read-out: MTT cytotoxicity SW620 Ad300 IC50, P-gp overexpressing daughter cell line SW620 Ad300; for FR (fold resistance): IC50 ratio for SW620 Ad300 versus SW620.
The next data set deals with SW620. Description: MTT cytotoxicity, SW620. Conditions: read-out: MTT cytotoxicity SW620 IC50; colon cancer cell line SW620.
Data set [1] concerns the target oncogenic mutant K-Ras (mGFP-K-RasG12 V) (Homo sapiens, UniProt P01116, G12V). Description: K-Ras PM mislocalization. Conditions: for K-Ras PM mislocalization Emax: maximum extent of mislocalization of K-Ras from the PM to the endomembrane, MDCK cells; for IC50: read-out: K-Ras PM mislocalization IC50, mGFP-K-RasG12V in intact MDCK cells.
A further data set relates to A549 versus H522. Description: Cytotoxicity toward K-Ras mutated versus non-mutated lung cancer cells. The settings on record: human lung cancer cells.

Sequence of oncogenic mutant K-Ras (mGFP-K-RasG12 V) (P01116 1-188 isoform P01116-2 G12V): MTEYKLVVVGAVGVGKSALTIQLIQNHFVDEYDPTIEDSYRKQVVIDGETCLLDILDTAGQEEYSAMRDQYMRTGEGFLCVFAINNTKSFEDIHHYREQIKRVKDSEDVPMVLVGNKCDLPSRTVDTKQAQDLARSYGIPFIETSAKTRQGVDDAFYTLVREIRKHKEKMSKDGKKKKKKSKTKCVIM

As to `COc1cccc2c1C(=O)c1c(O)c3c(c(O)c1C2=O)C[C@@](O)(C(=O)CO)C[C@@H]3O[C@H]1C[C@H](N)[C@H](O)[C@H](C)O1` [doxorubicin], the entries for the “FR (fold resistance), control study” value with SW620 Ad300 (coadministration with the P-gp inhibitor verapamil) and in the data set with SW620 Ad300 (doxorubicin alone) were 2.4 and 22, respectively.

For the molecule `CCC(C)C1OC(=O)C(NC(=O)c2cccc(NC=O)c2O)C(C)OC(=O)C(C(C)CC)OC(=O)C(C)(C)C(O)C(Cc2ccccc2)OC1=O` (stereo not drawn) [compound 3, neoantimycin G], the IC50 in the data set on SW620 was 40 nM; in data set [1], 7.9 ± 0.5 nM; in the data set with SW620 Ad300 it was 260 nM. For the same molecule, in data set [1], the “K-Ras PM mislocalization Emax” value is given as 0.62 ± 0.01.

Regarding `CC[C@H](C)[C@@H]1OC(=O)C(C)(C)[C@@H](O)[C@@H](Cc2ccccc2)OC(=O)[C@H](C(C)C)OC(=O)[C@@H](NC(=O)c2cccc(NC=O)c2O)[C@H](C)OC1=O` [compound 1, neoantimycin], the IC50 in the data set on SW620 worked out at 60 nM. Also, the “increased cytotoxicity toward K-Ras mutated A549 versus non-mutated H522” value with A549 versus H522 is 50 fold. Besides, in data set [1], the “K-Ras PM mislocalization Emax” value was found to be 0.60 ± 0.03 and the IC50 stood at 2.9 ± 0.7 nM. In addition, in the data set with SW620 Ad300, the “FR (fold resistance)” value turned out to be 3.8 and the 50% inhibitory concentration (IC50) was determined as 230 nM.

As to `CCCCCC[C@H]1C(=O)O[C@H](C)[C@H](NC(=O)c2cccc(NC=O)c2O)C(=O)O[C@@H](C)[C@@H]1OC(=O)C(C)C` [compound 5, antimycin A2a, reference compound], the IC50 with SW620 stood at 150 nM. Besides, the “increased cytotoxicity toward K-Ras mutated A549 versus non-mutated H522” value with A549 versus H522 is given as above 26 fold. Further, in data set [1], the “K-Ras PM mislocalization Emax” value stood at 0.78 ± 0.02 and the IC50 was 7.9 ± 0.3 nM. Besides, in the data set on SW620 Ad300, the “FR (fold resistance)” value was 2.1 and the IC50 worked out at 320 nM.

`CC[C@H](C)[C@@H]1OC(=O)C(C)(C)C(=O)[C@@H](Cc2ccccc2)OC(=O)[C@H](C(C)C)OC(=O)[C@@H](NC(=O)c2cccc(NC=O)c2O)[C@@H](C)OC1=O` [compound 4, neoantimycin H]: the values for the IC50 (in the data set on SW620; in data set [1]; in the data set with SW620 Ad300) were 70 nM, 6.4 ± 0.5 nM and 190 nM, respectively. The “K-Ras PM mislocalization Emax” value in data set [1] was found to be 0.60 ± 0.02. Further, in the data set with SW620 Ad300, the “FR (fold resistance)” value amounted to 2.7.

For the molecule `CCCC[C@H]1C(=O)O[C@H](C)[C@H](NC(=O)c2cccc(NC=O)c2O)C(=O)O[C@@H](C)[C@@H]1OC(=O)C(C)C` [compound 6, antimycin A4a, reference compound], the 50% inhibitory concentration (IC50) with SW620 was 120 nM; in data set [1], 3.7 ± 0.3 nM; in the data set on SW620 Ad300 it was 440 nM. Moreover, the “K-Ras PM mislocalization Emax” value in data set [1] stood at 0.79 ± 0.02. In the data set on SW620 Ad300, the “FR (fold resistance)” value is 3.7.

In the case of `CCC(C)[C@@H]1OC(=O)[C@H](C)OC(=O)[C@@H](NC(=O)c2cccc(NC=O)c2O)[C@@H](C)OC(=O)[C@H](CC(C)C)OC(=O)C(C)(C)C(=O)[C@H](CC(C)C)NC1=O` (stereo partly drawn) [compound 7, respirantin, reference compound], the concentration for half-maximal inhibition (IC50) in the data set on SW620 is 10 nM; in data set [1], 0.7 ± 0.1 nM; in the data set on SW620 Ad300 it was 30 nM. Further, in the data set with A549 versus H522, the “increased cytotoxicity toward K-Ras mutated A549 versus non-mutated H522” value is given as above 33 fold. Besides, the “K-Ras PM mislocalization Emax” value in data set [1] is listed as 0.78 ± 0.02. For the same molecule, the “FR (fold resistance)” value with SW620 Ad300 is given as 3.0.

As to `CC(C)[C@@H]1OC(=O)[C@@H](NC(=O)c2cccc(NC=O)c2O)[C@H](C)OC(=O)[C@H](C(C)C)OC(=O)C(C)(C)[C@@H](O)[C@@H](Cc2ccccc2)OC1=O` [compound 2, neoantimycin F], in the data set with SW620, the IC50 turned out to be 160 nM. Also, in data set [1], the “K-Ras PM mislocalization Emax” value is 0.56 ± 0.01 and the IC50 amounted to 9.9 ± 0.2 nM. For the same molecule, in the data set with SW620 Ad300, the “FR (fold resistance)” value was 3.8 and the IC50 turned out to be 610 nM.
